Test results as given in patent publication US20030054988A1, “Modified plasminogen related peptide fragments and their use as angiogenesis inhibitors” (priority 2000, published 2003).

Tests used:
[1] = tested on: human umbilical vein endothelial cell (HUVEC); assay: bFGF-induced HUVEC migration; type: cell-based
Text: (§1) The assay used in these experiments is described by Ji et al. in Biochem. Biophys. Res. Commun. 1998 247:414-419. […] In addition, the modified peptide fragment BMS-291242 (SEQ ID NO: 12) was an extremely potent inhibitor of bFGF-induced HUVEC migration.

HUVEC = HUVEC proliferation in response to mitogenic stimulation; type: cell-based, human
Text: The anti-proliferative effects of the modified peptide fragments on endothelial cells in response to different mitogenic stimulation were also examined. The assay used in these experiments is described by Cao et al. in J. Biol. Chem. 1997 272(36):22924-22928. The modified peptide fragment BMS-291102 (SEQ ID NO: 2) was an extremely potent inhibitor of bFGF-elicited HUVEC proliferation.

[2] = tested on: endothelial cells in the matrigel plug; assay: In vivo Matrigel plug angiogenesis model; details: 100 μM/plug, peptide embedded in matrigel, bFGF stimulation, nude mice
Experimental: Modified peptide fragments of the present invention were also evaluated in the matrigel plug model to determine their in vivo anti-angiogenic activities. To minimize the effects caused by differential pharmacokinetic properties of these compounds, the matrigel was prepared together with these peptides and the mixture was implanted into nude mice.
MATRIGEL was mixed with basic fibroblast growth factors at a final concentration of 300 μg/ml. Peptide fragments at selected doses were embedded with the MATRIGEL mixture and injected subcutaneously into mice. The animals were allowed to grow for 7 days. The plugs were then excised and the number of endothelial cells in the plug were examined histologically.

[3] = tested on: human umbilical vein endothelial cell (HUVEC); assay: VEGF-induced HUVEC migration; type: cell-based; details: VEGF-induced/stimulated; read-out: inhibition of VEGF-induced HUVEC migration (potency class)
Text: as §1

[4] = bFGF-induced, read-out: inhibition of bFGF-induced HUVEC migration (potency class)

| Sequence | IC50 [1, 4] [nM] | reduction of number of endothelial cells in matrigel plug / inhibition of bFGF-elicited in vivo angiogenesis [2] | IC50 [3] [nM] | further results |
| --- | --- | --- | --- | --- |
| AQDWAAQEPHRHSIFTPETNPRAGLEKNYA [BMS-291242] | < 10 | significantly inhibited | – | anti-proliferative activity on endothelial cells (HUVEC; mitogenic stimulus not given): moderate anti-proliferative activity |
| NYARNPDGDVGGPWAY [BMS-291203, Ac-NYARNPDGDVGGPWAY-NH2] | – | effectively reduced the number of endothelial cells | – | – |
| NYARNPDGDVGGPWAYTTNPRKLYDYADVPQA [BMS-291245] | – | significantly inhibited | – | – |
| TTNPRKLYDYADVPQA [BMS-291205, Ac-TTNPRKLYDYADVPQA-NH2] | – | – | < 100 | IC50 ([1]; stimulus not given, presumably bFGF, read-out: IC50, marginal inhibitory activity (HUVEC migration)): 1000 nM |
| VTGTPAQDWAAQEPHR [BMS-291102, Ac-VTGTPAQDWAAQEPHR-NH2] | – | effectively reduced the number of endothelial cells | – | IC50 (HUVEC; bFGF-elicited, read-out: inhibition of bFGF-elicited HUVEC proliferation (potency class)): < 10 nM |
| WAAQEPHRHSIFTPET [BMS-291209, Ac-WAAQEPHRHSIFTPET-NH2] | < 100 | – | < 10 | – |
